Columns and labels:
[1] = Crystal; Adiabatic calorimetry
[2] = Molar enthalpy of transition or fusion; conditions: Crystal
[3] = molar heat capacity at saturation pressure

CC(C)(C)c1ccccc1 [(1,1-dimethylethyl)benzene]
Conditions | Molar enthalpy of transition or fusion [kcal/mol] | Triple point temperature [K]
[1] | – | 215.31
[2] | 2.0062 | –

molar heat capacity [J/K/mol], [3]
Conditions | Crystal | Liquid
5 K | 0.72 | –
5.009 K | 0.72 | –
5.752 K | 1.09 | –
6.678 K | 1.68 | –
7.653 K | 2.44 | –
8.667 K | 3.35 | –
9.709 K | 4.46 | –
10 K | 4.79 | –
10.84 K | 5.76 | –
12.09 K | 7.28 | –
13.47 K | 9.104 | –
14.96 K | 11.15 | –
16.6 K | 13.48 | –
18.41 K | 16.04 | –
20 K | 18.27 | –
20.41 K | 18.84 | –
22.63 K | 21.93 | –
25.1 K | 25.19 | –
27.86 K | 28.67 | –
30 K | 31.19 | –
30.93 K | 32.24 | –
34.35 K | 35.9 | –
38.17 K | 39.64 | –
40 K | 41.3 | –
42.44 K | 43.41 | –
47.2 K | 47.28 | –
50 K | 49.43 | –
52.43 K | 51.23 | –
53.45 K | 51.95 | –
58.21 K | 55.36 | –
58.43 K | 55.52 | –
60 K | 56.6 | –
64.04 K | 59.39 | –
70 K | 63.57 | –
70.32 K | 63.81 | –
77.32 K | 68.59 | –
80 K | 70.45 | –
84.98 K | 73.93 | –
87.08 K | 75.43 | –
90 K | 77.44 | –
93.34 K | 79.79 | –
93.37 K | 79.85 | –
100 K | 84.51 | –
101.27 K | 85.43 | –
102.4 K | 86.21 | –
110.41 K | 91.89 | –
111.86 K | 92.92 | –
120 K | 98.68 | –
120.01 K | 98.72 | –
129.8 K | 105.69 | –
139.62 K | 112.79 | –
140 K | 113.02 | –
149.52 K | 119.99 | –
160 K | 127.65 | –
160.53 K | 128.13 | –
162.39 K | 129.37 | –
172.82 K | 137.16 | –
173.48 K | 137.69 | –
180 K | 142.42 | –
185.83 K | 147.07 | –
186.21 K | 147.43 | –
197.14 K | 156.12 | –
200 K | 157.51 | –
203.2 K | 162.61 | –
206.78 K | 167.05 | –
215.31 K | 169.1 | 208.01
220 K | – | 209.58
223.09 K | – | 210.65
223.25 K | – | 210.68
232.46 K | – | 213.79
232.58 K | – | 213.79
240 K | – | 216.6
240.86 K | – | 216.97
253.04 K | – | 221.76
260 K | – | 224.65
265.37 K | – | 226.92
277.79 K | – | 232.27
280 K | – | 233.26
291.32 K | – | 238.42
294.64 K | – | 239.95
298.15 K | – | 241.59
300 K | – | 242.45
305.81 K | – | 245.17
311.47 K | – | 247.82
320 K | – | 251.92
329.17 K | – | 256.4
330 K | – | 256.8
340 K | – | 261.71
347.61 K | – | 265.47
360 K | – | 271.66
365.98 K | – | 274.65
380 K | – | 281.68
384.21 K | – | 283.78
400 K | – | 291.7
402.17 K | – | 292.78
419.78 K | – | 301.62
420 K | – | 301.72
435.18 K | – | 309.12
440 K | – | 311.52

Reference: the NIST ThermoML archive (doi:10.1016/j.jct.2008.10.008)
